The target of assay [1] is T1, PRMT5 (Homo sapiens, UniProt O14744).
T1 construct: purchased Viva (custom protein)
The assay can be described thus: PRMT5 biochemical IC50 assay with SAM as cofactor. Conditions: PRMT5, SAM as cofactor; read-out: SAM IC50.

Assay [2] deals with T1, PRMT5. The assay can be described thus: PRMT5 biochemical IC50 assay with no cofactor. Conditions: PRMT5, no cofactor; read-out: No Cofactor/rel IC50. The source says:
Table 1 indicates IC50 values (μM) against PRMT5 for exemplary compounds in the presence of SAM as cofactor, with no cofactor, and with MTA as cofactor, respectively (columns 4-6). […] Ki values can be calculated from the IC50 values as described in the Examples section. As detailed in the Examples section, for the assay performed in the presence of SAM, IC50=Ki×1.5 (Ki=IC50/1.5).

The target in assay [3] is T1, PRMT5. The assay is described as follows: PRMT5 biochemical IC50 assay with MTA as cofactor. The settings on record: PRMT5, MTA as cofactor; read-out: MTA IC50.
In assay [4] the test system is HAP1 MTAP-intact cell line. The assay is described as follows: SDMA in-cell western assay, HAP1 MTAP-intact. The assay is classed as cell-based. Conditions: Homo sapiens, HAP1, SDMA in-cell western, HAP1 MTAP-intact; read-out: MTAP HAP1 intact IC50. The method in brief:
(§1)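 IC50 values come from SDMA signal quantified by in-cell western in two HAP1 lines, one with native MTAP levels and one lacking MTAP.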

Assay [5] relates to HAP1 MTAP-deleted cell line. The assay can be described thus: SDMA in-cell western assay, HAP1 MTAP-deleted. In kind it is cell-based. Conditions: for IC50: Homo sapiens, HAP1, SDMA in-cell western, HAP1 MTAP-deleted, read-out: HAP 1 MTAP deleted IC50; for MTAP intact/deleted ratio: IC50 ratio HAP1 MTAP-intact / HAP1 MTAP-deleted, SDMA in-cell western. The method in brief: as §1

Assay [6] has as its system HAP1 MTAP-deleted cell line. The assay is described as follows: Viability assay, MTAP-deleted cell line. In kind it is cell-based. Conditions: Homo sapiens, HAP1, viability assay, MTAP-deleted cell line; read-out: HAP1 MTAP deleted viability. The source says:
Table 1 additionally indicates IC50 values in a viability assay for the MTAP-deleted cell line (column 10), indicating the effect of treatment with compound on cell survival.

T1 sequence (O14744 whole entry): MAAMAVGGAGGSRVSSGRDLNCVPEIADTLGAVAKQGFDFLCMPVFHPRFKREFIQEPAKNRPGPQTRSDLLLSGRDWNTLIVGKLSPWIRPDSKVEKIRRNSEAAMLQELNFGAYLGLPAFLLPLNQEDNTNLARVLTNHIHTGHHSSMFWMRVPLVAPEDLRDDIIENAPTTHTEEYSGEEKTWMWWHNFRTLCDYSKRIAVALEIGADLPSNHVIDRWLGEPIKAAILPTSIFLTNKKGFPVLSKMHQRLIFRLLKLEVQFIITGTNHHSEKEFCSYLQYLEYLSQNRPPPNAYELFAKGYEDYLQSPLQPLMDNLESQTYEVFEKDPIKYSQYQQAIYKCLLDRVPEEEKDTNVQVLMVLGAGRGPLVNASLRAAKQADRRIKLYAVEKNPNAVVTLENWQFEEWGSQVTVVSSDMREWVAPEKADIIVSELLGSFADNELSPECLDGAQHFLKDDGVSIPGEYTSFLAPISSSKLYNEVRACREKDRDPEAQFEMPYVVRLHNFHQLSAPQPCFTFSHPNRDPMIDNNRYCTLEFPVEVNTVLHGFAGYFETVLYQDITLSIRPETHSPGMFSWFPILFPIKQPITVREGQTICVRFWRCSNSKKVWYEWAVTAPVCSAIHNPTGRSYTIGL
T1 sequence (Q9BQA1 whole entry partner): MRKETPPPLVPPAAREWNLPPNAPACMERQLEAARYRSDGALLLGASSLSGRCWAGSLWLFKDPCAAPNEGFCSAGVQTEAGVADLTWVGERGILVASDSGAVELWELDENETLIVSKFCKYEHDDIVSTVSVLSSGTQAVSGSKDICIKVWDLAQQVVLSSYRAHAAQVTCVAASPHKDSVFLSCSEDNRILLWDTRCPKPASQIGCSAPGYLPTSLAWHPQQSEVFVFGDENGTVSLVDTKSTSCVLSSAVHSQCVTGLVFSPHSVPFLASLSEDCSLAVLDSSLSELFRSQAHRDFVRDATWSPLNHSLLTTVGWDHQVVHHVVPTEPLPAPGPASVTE

For `Cc1nc2cc([C@@H]3CC[C@@H](C)CN3C(=O)C(=O)Nc3cnc(N)c(C)c3)ccc2[nH]1` (single isomer, unassigned) [Compound 963], the IC50 is greater than 500 nM at PRMT5 [1]; greater than 500 nM at PRMT5 [2]; greater than 500 nM on PRMT5 [3]; greater than 1000 nM in assay [4]; greater than 1000 nM in assay [5]; greater than 10000 nM in assay [6]. Also, the MTAP intact/deleted ratio entry in assay [5] was “B (an IC50 ratio greater than or equal to 3 fold but lower than 10 fold)”.

On to `Cc1cc(NC(=O)C(=O)N2C[C@@H](C)CC[C@@H]2c2cccc3[nH]cnc23)cnc1N` (single isomer, unassigned) [Compound 964], for which the IC50 was greater than 500 nM at PRMT5 [1]; greater than 500 nM on PRMT5 [2]; greater than 500 nM at PRMT5 [3]; greater than 1000 nM in assay [4]; greater than 1000 nM in assay [5]; greater than 10000 nM in assay [6]. In addition, the MTAP intact/deleted ratio result in assay [5] is reported as “C (an IC50 ratio of less than 3 fold)”.

As to `COc1ncc(NC(=O)C(=O)N2C[C@H](C)CC[C@H]2c2cc(Cl)cc(Cl)c2)cc1C(N)=O` (single isomer, unassigned) [Compound 965], the IC50 at PRMT5 [1] is greater than 500 nM; at PRMT5 [2], greater than 500 nM; at PRMT5 [3] it was greater than 500 nM; in assay [4], greater than 1000 nM; in assay [5], greater than 1000 nM; in assay [6], greater than 10000 nM. Also, the MTAP intact/deleted ratio result in assay [5] was “B (an IC50 ratio greater than or equal to 3 fold but lower than 10 fold)”.

Turning to `CCc1cc(NC(=O)C(=O)N2C[C@H](C)CC[C@H]2c2cc(Cl)cc(Cl)c2)cnc1N` (single isomer, unassigned) [Compound 966], the IC50 is greater than 500 nM at PRMT5 [1]; greater than 500 nM on PRMT5 [2]; 50 to 500 nM on PRMT5 [3]; greater than 1000 nM in assay [4]; greater than 1000 nM in assay [5]; greater than 10000 nM in assay [6]. For the same molecule, the MTAP intact/deleted ratio entry in assay [5] is on record as “B (an IC50 ratio greater than or equal to 3 fold but lower than 10 fold)”.

In the case of `CCc1cc(NC(=O)C(=O)N2C[C@@H](C)CC[C@@H]2c2cc3[nH]ncc3s2)cnc1N` (single isomer, unassigned) [Compound 967], the IC50 was greater than 500 nM at PRMT5 [1]; greater than 500 nM on PRMT5 [2]; greater than 500 nM on PRMT5 [3]; greater than 1000 nM in assay [4]; greater than 1000 nM in assay [5]; greater than 10000 nM in assay [6]. Besides, the MTAP intact/deleted ratio result in assay [5] is recorded as “B (an IC50 ratio greater than or equal to 3 fold but lower than 10 fold)”.

As for `COc1ncc(NC(=O)C(=O)N2C[C@@H](C)CC[C@@H]2c2cc3cn[nH]c3s2)cc1C(N)=O` (single isomer, unassigned) [Compound 968, 2-methoxy-5-(2-(5-methyl-2-(1H-thieno[2,3-c]pyrazol-5-yl)piperidin-1-yl)-2-oxoacetamido)nicotinamide], the IC50 was 50 to 500 nM at PRMT5 [1]; less than 50 nM at PRMT5 [2]; less than 50 nM on PRMT5 [3]; 100 to 1000 nM in assay [4]; less than 100 nM in assay [5]; less than 1000 nM in assay [6]. For the same molecule, the MTAP intact/deleted ratio result in assay [5] is listed as “A (an IC50 ratio greater than or equal to 10 fold)”.

Regarding `Cc1cc(NC(=O)C(=O)N2C[C@H](C)CC[C@H]2c2cn[nH]c2)cnc1N` (single isomer, unassigned) [Compound 969], the IC50 was greater than 500 nM on PRMT5 [1]; greater than 500 nM on PRMT5 [2]; greater than 500 nM at PRMT5 [3]; greater than 1000 nM in assay [4]; greater than 1000 nM in assay [5]; greater than 10000 nM in assay [6]. The MTAP intact/deleted ratio result in assay [5] is listed as “C (an IC50 ratio of less than 3 fold)”.

For `C[C@@H]1CC[C@@H](c2cn[nH]c2)N(C(=O)C(=O)Nc2cncc(C(N)=O)c2)C1` (single isomer, unassigned) [Compound 970], the IC50 on PRMT5 [1] was greater than 500 nM; at PRMT5 [2], greater than 500 nM; at PRMT5 [3] it was greater than 500 nM; in assay [4], greater than 1000 nM; in assay [5], greater than 1000 nM; in assay [6] it was greater than 10000 nM. In addition, the MTAP intact/deleted ratio entry in assay [5] was “C (an IC50 ratio of less than 3 fold)”.

Turning to `Cc1cc(NC(=O)C(=O)N2C[C@@H](C)CC[C@@H]2c2ccc3sc(C(F)(F)F)nc3c2)cnc1N` (single isomer, unassigned) [Compound 972], the IC50 at PRMT5 [1] was 50 to 500 nM; on PRMT5 [2], 50 to 500 nM; at PRMT5 [3], less than 50 nM; in assay [4] it was less than 100 nM; in assay [5], less than 100 nM; in assay [6] it was less than 1000 nM. Further, the MTAP intact/deleted ratio result in assay [5] is listed as “B (an IC50 ratio greater than or equal to 3 fold but lower than 10 fold)”.

Consider `Cc1ccc([C@H]2CC(F)(F)[C@H](C)CN2C(=O)C(=O)Nc2cnc(N)c(C)c2)cn1` (single isomer, unassigned) [Compound 973], for which the IC50 on PRMT5 [1] is 50 to 500 nM; on PRMT5 [2], 50 to 500 nM; at PRMT5 [3] it was less than 50 nM; in assay [4], 100 to 1000 nM; in assay [5] it was less than 100 nM; in assay [6], 1000 to 10000 nM. Besides, the MTAP intact/deleted ratio entry in assay [5] is recorded as “A (an IC50 ratio greater than or equal to 10 fold)”.

With `Cc1ccc([C@H]2CC(F)(F)[C@H](C)CN2C(=O)C(=O)Nc2cncc(C(N)=O)c2)cn1` (single isomer, unassigned) [Compound 974], the IC50 at PRMT5 [1] was 50 to 500 nM; at PRMT5 [2] it was 50 to 500 nM; on PRMT5 [3] it was less than 50 nM; in assay [4], greater than 1000 nM; in assay [5], less than 100 nM; in assay [6], 1000 to 10000 nM. Further, the MTAP intact/deleted ratio result in assay [5] is “A (an IC50 ratio greater than or equal to 10 fold)”.

Regarding `C[C@H]1CC[C@H](c2cc[nH]n2)N(C(=O)C(=O)Nc2cncc(C(N)=O)c2)C1` (single isomer, unassigned) [Compound 978], the IC50 was greater than 500 nM at PRMT5 [1]; 50 to 500 nM at PRMT5 [2]; 50 to 500 nM at PRMT5 [3]; greater than 1000 nM in assay [4]; greater than 1000 nM in assay [5]; greater than 10000 nM in assay [6]. In assay [5], the MTAP intact/deleted ratio result is listed as “C (an IC50 ratio of less than 3 fold)”.

Turning to `Cc1cc(NC(=O)C(=O)N2C[C@H](C)CC[C@H]2c2ccc(NS(C)(=O)=O)nc2)cnc1N` (single isomer, unassigned) [Compound 980], the IC50 at PRMT5 [1] is 50 to 500 nM; at PRMT5 [2] it was 50 to 500 nM; on PRMT5 [3] it was 50 to 500 nM; in assay [4], greater than 1000 nM; in assay [5], greater than 1000 nM; in assay [6] it was greater than 10000 nM. The MTAP intact/deleted ratio result in assay [5] is given as “B (an IC50 ratio greater than or equal to 3 fold but lower than 10 fold)”.

Take `COc1ncc(NC(=O)C(=O)N2C[C@H](C)CC[C@H]2c2ccc(NS(C)(=O)=O)nc2)cc1C(N)=O` (single isomer, unassigned) [Compound 986]: the IC50 on PRMT5 [1] is greater than 500 nM; on PRMT5 [2], 50 to 500 nM; at PRMT5 [3] it was less than 50 nM; in assay [4] it was greater than 1000 nM; in assay [5], 100 to 1000 nM; in assay [6] it was 1000 to 10000 nM. The MTAP intact/deleted ratio entry in assay [5] is “A (an IC50 ratio greater than or equal to 10 fold)”.

As for `Cc1cc(NC(=O)C(=O)N2C[C@@H](C)CC[C@@H]2c2ccc3c(c2)CCNC3=O)cnc1N` (single isomer, unassigned) [Compound 988], the IC50 is greater than 500 nM at PRMT5 [1]; 50 to 500 nM on PRMT5 [2]; less than 50 nM on PRMT5 [3]; greater than 1000 nM in assay [4]; 100 to 1000 nM in assay [5]; 1000 to 10000 nM in assay [6]. The MTAP intact/deleted ratio entry in assay [5] is on record as “A (an IC50 ratio greater than or equal to 10 fold)”.

(Values after patent publication US11999727B2 (Tango Therapeutics, Inc., priority 2020, dated 2024).)
